In experiment [1] the test system is hypertension. As to conditions: enalapril 20 mg per day; three-month study; cited from earlier work.
For experiment [2], the system named is streptozotocin diabetic Sprague-Dawley rats. The class given is in vivo. The note with it: preliminary / unpublished studies.
Experiment [3] deals with unilateral ureteral ligation in Sprague-Dawley rats. Kind of experiment: Unilateral Ureteral Obstruction (UUO) renal fibrosis model. The note with it: for loss of medullary tissue in the kidney: untreated about 24%. It is filed as in vivo, rat. From the text:
This UUO model was employed essentially as described (Moller, et al. (1984) Virchows Arch 402: 209-237, the entire contents of which are incorporated herein by reference). Sprague-Dawley rats (about 250 g) underwent either a sham operation (ureter manipulated but not ligated) or unilateral ureteral ligation. Two ligatures, 5 mm apart, were placed in the upper two-thirds of the ureter over a section of polyethylene tubing placed around the ureter (see FIG. 17). The suture tied to obstruct the ureter was removed along with the tubing at day 5, relieving the obstruction. […] Uremia is avoided by the function of the contralateral kidney, which undergoes hypertrophy and hyperplasia as the obstructed kidney is destroyed. The renal injury of UUO is mediated in part through stimulation of renal angiotensin II production, which activates type-1 A-II Receptor and the downsteam TGF-β in a cascade of events culminating in tubulointerstitial inflammation and fibrosis. Inhibition of angiotensin II production by ACE inhibitors (or inhibition of A-II receptors) decreases expansion of the renal interstitium associated with fibrosis.
The effect of OP-1 on Renal fibrosis has been published (Hruska, et al. (2000) Am J Physiol Renal Physiol 279:F130-43, incorporated herein by reference), and a summarization is as follows. […] Additional effects of OP-1 have been observed in this rat UUO model.

Entries after “also recorded” stand apart in the source; their conditions may differ.

On to `CCOC(=O)[C@H](CCc1ccccc1)N[C@@H](C)C(=O)N1CCC[C@H]1C(=O)O` [enalapril, N-(1-ethoxycarbonyl-3-phenylpropyl)-L-ananyl-L-proline, reference compound], for which, in experiment [1], the “decrease in diastolic blood pressure” value is on record as 7.2 mm Hg and the “decrease in systolic blood pressure” value is listed as 8.2 mm Hg. For the same molecule, the “Enalapril response: dose and route of administration compared” value in experiment [2] is “no difference in the Enalapril response between 5 and 20 mg/kg; also recorded: equally effective as more arduous means of administering Enalapril”.

B1: OP-1: osteogenic protein-1 (OP-1, also known as BMP-7), morphogen of the OP/BMP family; OP-1 used interchangeably with sBMP-7 (protein)
chain: STGSKQRSQNRSKTPKNQEALRMANVAENSSSDQRQACKKHELYVSFRDLGWQDWIIAPEGYAAYYCEGECAFPLNSYMNATNHAIVQTLVHFINPETVPKPCCAPTQLNAISVLYFDDSSNVILKKYRNMVVRACGCH
For the molecule B1, the “loss of medullary tissue in the kidney” value in experiment [3] (OP-1 at 100 μg/kg) is “about 16%”; in experiment [3] (OP-1 at 300 μg/kg), “about 13%”. The “loss of medullary tissue / medullary necrosis (in words)” value in experiment [3] (UUO rats) was “reduces tubular atrophy and medullary necrosis; also recorded: significantly reduced the loss of medullary tissue”.

The record behind these values is US20050272649A1, “Conjoint administration of morphogens and ACE inhibitors in treatment of chronic renal failure” (priority 2002, published 2005).
